The experiment has as its target T1, bombesin receptor (Mus musculus, UniProt P21729).
T1 construct: The pancreata from one or more mice were pooled, minced, and homogenized; from tissue; host or cells: mouse pancreas (membrane pellet in A1; chopped tissue in A2)
Kind of experiment: Competition at the bombesin receptor for iodinated GRP (125I-GRP), mouse pancreas membranes. On the set-up: species or system mice. Conditions: 125I-GRP competition, read-out: Binding KD. On the procedure:
The pancreata from one or more mice were pooled, minced, and homogenized in 50 mM HEPES (pH 7.4) containing 120 mM NaCl and 5 mM KC1 at 4° C. and centrifuged at 37,500 ×g for 15 minutes. The pellet was resuspended in 50 mM HEPES (pH 7.4) containing 10 mM EDTA and 300 mM KC1 and incubated for 30 minutes at 4° C. The suspension was centrifuged as above and the pellet was washed two times in 50 mM HEPES (pH 7.4) containing protease inhibitors (10 uM phenylmethylsulfonyl fluoride, 1 uM thiorphan, 40 ug/ml bacitracin, 10 mM iodoacetimide and 4 ug/ml leupeptin), and again centrifuged. The tissue was then resuspended in incubation buffer (1 ml per 4 mg pancreas) and incubated for 15 minutes at room temperature, then 250 ul was added to each assay tube to commence the assay. The assay tubes contained incubation buffer consisting of 50 mM HEPES (pH 7.4), 0.5% BSA, protease inhibitors, 2 mM MnCl2, 1 uM somatostatin, and concentrations of ^125 I-GRP and peptides as needed in a final volume of 500 ul. The assay was allowed to proceed to equilibrium for 90 minutes at room temperature. After this time, the contents of each tube was rapidly filtered over Whatman GF/B filters presoaked in 0.1% polyethyleneimine and the filters were rapidly washed three times with ice-cold 50 mM HEPES (pH 7.4). Filter-bound radioactivity was quantitated in a gamma counter. Competition of iodinated GRP binding by test compounds or standards was expressed as a percentage of ^125 I-GRP binding in the absence of peptide. Affinity and maximal binding were calculated with Ligand (Biosoft, Cambridge, UK).

A word on the pKd: it is the negative decadic logarithm of the Kd, by convention in mol/L.

pKd: −log10 of the molar value. Non-standard residues stand in square brackets, D forms with d. Residues, ends and D or L forms follow the SMILES beside them. *: point of attachment. Palmitoyl = CCCCCCCCCCCCCCCC(=O)*; Lauroyl = CCCCCCCCCCCC(=O)*; Octanoyl = CCCCCCCC(=O)*

T1 sequence (P21729 whole entry): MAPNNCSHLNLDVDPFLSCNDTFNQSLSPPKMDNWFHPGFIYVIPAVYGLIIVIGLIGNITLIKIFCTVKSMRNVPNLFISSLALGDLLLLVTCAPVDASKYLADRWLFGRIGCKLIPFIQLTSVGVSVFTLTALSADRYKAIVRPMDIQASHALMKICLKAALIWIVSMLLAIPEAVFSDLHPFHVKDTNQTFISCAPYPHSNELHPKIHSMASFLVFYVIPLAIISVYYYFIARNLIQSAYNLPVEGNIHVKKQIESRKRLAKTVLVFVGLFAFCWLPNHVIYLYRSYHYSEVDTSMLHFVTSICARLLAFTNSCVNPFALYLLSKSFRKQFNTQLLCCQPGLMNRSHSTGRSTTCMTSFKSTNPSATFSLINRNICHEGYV

For the compound `CCCCCCCC(=O)N[C@@H](CCC(N)=O)C(=O)N[C@@H](Cc1c[nH]c2ccccc12)C(=O)N[C@@H](C)C(=O)N[C@H](C(=O)N[C@H](C)C(=O)N[C@@H](Cc1c[nH]cn1)C(=O)N[C@@H](CC(C)C)C(N)=O)C(C)C` [Example 1, N-(n-Octanoyl)-Gln-Trp-Ala-Val-ala-His-Leu-NH2] (Octanoyl-QWAV[dA]HL-NH2), the negative-log Kd (pKd) is 8.30. On to `CCCCCCCCCCCC(=O)N[C@@H](CCC(N)=O)C(=O)N[C@@H](Cc1c[nH]c2ccccc12)C(=O)N[C@@H](C)C(=O)N[C@H](C(=O)N[C@H](C)C(=O)N[C@@H](Cc1c[nH]cn1)C(=O)N[C@@H](CC(C)C)C(N)=O)C(C)C` [Example 2, N-(Lauroyl)-Gln-Trp-Ala-Val-ala-His-Leu-NH2] (Lauroyl-QWAV[dA]HL-NH2), for which the negative logarithm of the Kd (pKd) was 6.49. The value for `CCCCCCCCCCCCCCCC(=O)N[C@@H](CCC(N)=O)C(=O)N[C@@H](Cc1c[nH]c2ccccc12)C(=O)N[C@@H](C)C(=O)N[C@H](C(=O)N[C@H](C)C(=O)N[C@@H](Cc1c[nH]cn1)C(=O)N[C@@H](CC(C)C)C(N)=O)C(C)C` [Example 3, N-(Palmitoyl)-Gln-Trp-Ala-Val-ala-His-Leu-NH2] (Palmitoyl-QWAV[dA]HL-NH2) was 6.46.

Consider `CCCCCCCC(=O)N[C@@H](CCC(N)=O)C(=O)N[C@@H](Cc1c[nH]c2ccccc12)C(=O)N[C@@H](C)C(=O)N[C@H](C(=O)N[C@H](C)C(=O)N[C@@H](Cc1c[nH]cn1)C(N)=O)C(C)C` [Example 4, N-(n-Octanoyl)-Gln-Trp-Ala-Val-ala-His-NH2] (Octanoyl-QWAV[dA]H-NH2), for which the pKd is 7.24.

On to `CC(=O)N[C@@H](CCC(N)=O)C(=O)N[C@@H](Cc1c[nH]c2ccccc12)C(=O)N[C@@H](C)C(=O)N[C@H](C(=O)N[C@H](C)C(=O)N[C@@H](Cc1c[nH]cn1)C(N)=O)C(C)C` [Nα-AcetylQ W A V a H #] (Ac-QWAV[dA]H-NH2), for which the negative logarithm of the Kd (pKd) was 5.82. As for `CC(=O)N[C@@H](CCC(N)=O)C(=O)N[C@@H](Cc1c[nH]c2ccccc12)C(=O)N[C@@H](C)C(=O)N[C@H](C(=O)N[C@H](C)C(=O)N[C@@H](Cc1c[nH]cn1)C(=O)N[C@@H](CC(C)C)C(N)=O)C(C)C` [Nα-AcetylQ W A V a H L #] (Ac-QWAV[dA]HL-NH2), the negative-log Kd (pKd) is 7.16. As for `CC(=O)N[C@@H](Cc1c[nH]c2ccccc12)C(=O)N[C@@H](C)C(=O)N[C@H](C(=O)N[C@H](C)C(=O)N[C@@H](Cc1c[nH]cn1)C(N)=O)C(C)C` [Nα-AcetylW A V a H #] (Ac-WAV[dA]H-NH2), the pKd is below 5.00.

Turning to `CCCCCCCCCCCC(=O)N[C@@H](CCC(N)=O)C(=O)N[C@@H](Cc1c[nH]c2ccccc12)C(=O)N[C@@H](C)C(=O)N[C@H](C(=O)N[C@H](C)C(=O)N[C@@H](Cc1c[nH]cn1)C(N)=O)C(C)C` [Nα-LaurylQ W A V a H #] (Lauroyl-QWAV[dA]H-NH2), the pKd is below 5.00. The value for `CCCCCCCCCCCC(=O)N[C@@H](Cc1c[nH]c2ccccc12)C(=O)N[C@@H](C)C(=O)N[C@H](C(=O)N[C@H](C)C(=O)N[C@@H](Cc1c[nH]cn1)C(N)=O)C(C)C` [Nα-LaurylW A V a H #] (Lauroyl-WAV[dA]H-NH2) was below 5.00; that for `CCCCCCCC(=O)N[C@@H](Cc1c[nH]c2ccccc12)C(=O)N[C@@H](C)C(=O)N[C@H](C(=O)N[C@H](C)C(=O)N[C@@H](Cc1c[nH]cn1)C(N)=O)C(C)C` [Nα-OctylW A V a H #] (Octanoyl-WAV[dA]H-NH2) was below 5.00.

On to `CCCCCCCCCCCCCCCC(=O)N[C@@H](CCC(N)=O)C(=O)N[C@@H](Cc1c[nH]c2ccccc12)C(=O)N[C@@H](C)C(=O)N[C@H](C(=O)N[C@H](C)C(=O)N[C@@H](Cc1c[nH]cn1)C(N)=O)C(C)C` [Nα-PalmitylQ W A V a H #] (Palmitoyl-QWAV[dA]H-NH2), for which the pKd is below 5.00.

In the case of `CCCCCCCCCCCCCCCC(=O)N[C@@H](Cc1c[nH]c2ccccc12)C(=O)N[C@@H](C)C(=O)N[C@H](C(=O)N[C@H](C)C(=O)N[C@@H](Cc1c[nH]cn1)C(N)=O)C(C)C` [Nα-PalmitylW A V a H #] (Palmitoyl-WAV[dA]H-NH2), the pKd is below 5.00.

For the origin of these results see patent US5834433A, “Compounds and pharmaceutical uses of peptides of bombesin and GRP” (Merrell Pharmaceuticals Inc., priority 1996, dated 1998).
